Assays:
Assay in all cases: relative viability (nuclei count vs DMSO), 5 days (fraction); higher = more cells survive
Motesanib + Bortezomib = compound: CC1(C)CNc2cc(NC(=O)c3cccnc3NCc3ccncc3)ccc21 [Motesanib] + CC(C)C[C@H](NC(=O)[C@H](Cc1ccccc1)NC(=O)c1cnccn1)B(O)O [Bortezomib] (partner 0.002 µM)
How it was run: (§1)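 Lung cancer cell lines were seeded in 1536-well plates and dosed by pin tool the next day, with either a single drug or a fixed anchor-drug dose combined with five library-drug doses (not always all listed) spaced in √10 steps. Five days later, one step fixed the cells and stained their nuclei (final 0.05% Triton X-100, 1% formaldehyde, 1 ug/ml Hoechst), and nuclei were counted on 4× images. Relative viability is the nuclei count in treated wells divided by the count in vehicle wells, and each value is the median of duplicate plates.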

[1] = compound: C[C@@]1(C(=O)Nc2ccc(F)nc2)CCCN1c1nc(Nc2cc(C3CC3)n[nH]2)c2cccn2n1 + CC(=O)Nc1cccc(-n2c(=O)n(C3CC3)c(=O)c3c(Nc4ccc(I)cc4F)n(C)c(=O)c(C)c32)c1 [Trametinib] (partner 0.02 µM)
How it was run: as §1

Motesanib + Dasatinib = compound: CC1(C)CNc2cc(NC(=O)c3cccnc3NCc3ccncc3)ccc21 [Motesanib] + Cc1nc(Nc2ncc(C(=O)Nc3c(C)cccc3Cl)s2)cc(N2CCN(CCO)CC2)n1 [Dasatinib] (partner 0.075 µM)
How it was run: as §1

[2] = compound: C[C@@]1(C(=O)Nc2ccc(F)nc2)CCCN1c1nc(Nc2cc(C3CC3)n[nH]2)c2cccn2n1 + COc1cc2c(Oc3ccc(NC(=O)C4(C(=O)Nc5ccc(F)cc5)CC4)cc3F)ccnc2cc1OCCCN1CCOCC1 [Foretinib] (partner 0.25 µM)
How it was run: as §1

Row | Cell Line | relative viability (Motesanib + Bortezomib; first compound 0.01 µM) | relative viability (Motesanib + Bortezomib; first compound 0.03162 µM) | relative viability (Motesanib + Bortezomib; first compound 0.1 µM) | relative viability (Motesanib + Bortezomib; first compound 0.3162 µM) | relative viability (Motesanib + Bortezomib; first compound 1 µM) | relative viability ([1]; first compound 0.04 µM) | relative viability ([1]; first compound 0.1265 µM) | relative viability ([1]; first compound 0.4 µM) | relative viability ([1]; first compound 1.265 µM) | relative viability (Motesanib + Dasatinib; first compound 0.01 µM) | relative viability (Motesanib + Dasatinib; first compound 0.03162 µM) | relative viability (Motesanib + Dasatinib; first compound 0.1 µM) | relative viability (Motesanib + Dasatinib; first compound 0.3162 µM) | relative viability (Motesanib + Dasatinib; first compound 1 µM) | relative viability ([2]; first compound 0.04 µM) | relative viability ([2]; first compound 0.1265 µM) | relative viability ([2]; first compound 0.4 µM) | relative viability ([2]; first compound 1.265 µM)
1 | HCC-78 | 0.44 | 0.375 | 0.667 | 0.549 | 0.385 | 0.637 | 1.19 | 0.334 | 0.327 | 0.342 | 0.406 | 0.291 | 0.391 | 0.437 | 0.505 | 0.323 | 0.347 | 0.421
2 | IA-LM | 0.879 | 0.704 | 0.816 | 0.819 | 0.783 | – | – | – | – | – | – | – | – | – | 1.3 | 1.11 | 0.921 | 1.13
3 | NCI-H322M | 1.32 | 1.24 | 1.39 | 1.36 | 1.23 | 0.435 | 0.428 | 0.334 | 0.347 | 0.234 | 0.216 | 0.268 | 0.26 | 0.262 | 0.907 | 0.608 | 0.62 | 0.655
4 | NCI-H3122 | 1.04 | 0.967 | 1.04 | 1.12 | 1.01 | 0.181 | 0.202 | 0.181 | 0.2 | 0.705 | 0.825 | 0.677 | 0.893 | 0.916 | 0.978 | 0.937 | 0.942 | 0.893
5 | COR-L23 | 1.01 | 0.974 | 1.04 | 1.11 | 0.914 | 0.59 | 0.542 | 0.441 | 0.269 | 0.561 | 0.59 | 0.515 | 0.499 | 0.451 | 0.967 | 0.865 | 0.762 | 0.695
6 | NCI-H2087 | 0.796 | 0.781 | 0.885 | 0.76 | 0.704 | 0.158 | 0.161 | 0.15 | 0.138 | 0.838 | 0.841 | 0.774 | 0.91 | 0.895 | 0.812 | 0.801 | 0.705 | 0.72
7 | LC-2-ad | 1.02 | 1.03 | 1.04 | 1.14 | 0.942 | 0.848 | 0.749 | 0.648 | 0.735 | 0.539 | 0.575 | 0.745 | 0.503 | 0.496 | 0.651 | 0.617 | 0.599 | 0.5
8 | NCI-H1915 | 0.959 | 0.929 | 0.936 | 0.98 | 0.989 | 0.316 | 0.261 | 0.272 | 0.338 | 0.32 | 0.329 | 0.303 | 0.312 | 0.279 | 1.11 | 1.04 | 1.04 | 1.18
9 | NCI-H1793 | – | – | – | – | – | 0.4 | 0.355 | 0.392 | 0.459 | 0.393 | 0.388 | 0.376 | 0.416 | 0.405 | 0.664 | 0.566 | – | 0.715
10 | NCI-H2023 | 0.934 | 1.07 | 0.887 | 0.966 | 1.09 | 0.454 | 0.387 | 0.297 | 0.277 | 0.576 | 0.476 | 0.575 | 0.59 | 0.662 | 0.488 | 0.475 | 0.36 | 0.279
11 | NCI-H1792 | 0.931 | 0.737 | 0.976 | 1.04 | 1.03 | 0.343 | 0.188 | 0.145 | 0.211 | – | 0.749 | 0.808 | 0.953 | 0.767 | – | – | – | –
12 | NCI-H2342 | – | – | – | – | – | 0.668 | 0.813 | 0.605 | 0.7 | 0.271 | 0.312 | 0.336 | 0.279 | 0.317 | 1.02 | 0.906 | 0.812 | 0.917
13 | NCI-H1299 | 1.02 | 1.02 | 1.04 | 1.01 | 1.05 | – | – | – | – | – | – | – | – | – | 1.21 | 1.06 | 0.585 | 1.05
14 | SW 900 | – | – | – | – | – | 0.764 | 0.805 | 0.808 | 0.572 | 0.545 | 0.714 | 0.858 | 0.611 | 0.461 | 0.705 | 0.694 | 0.558 | 0.816
15 | SK-MES-1 | – | – | – | – | – | 0.604 | 0.483 | 0.522 | 0.633 | 0.397 | 0.424 | 0.373 | 0.412 | 0.378 | 0.9 | 0.853 | 0.542 | 0.948
16 | NCI-H1648 | – | – | – | – | – | 0.391 | 0.285 | 0.282 | 0.39 | – | – | – | – | – | – | – | – | –
17 | NCI-H522 | – | – | – | – | – | 0.692 | 0.696 | 0.595 | 0.586 | 0.754 | 0.835 | 0.921 | 0.862 | 0.864 | – | – | – | –
18 | LK-2 | – | – | – | – | – | 0.426 | 1.15 | 0.416 | 0.495 | 0.322 | 0.212 | – | 0.379 | 0.245 | 0.731 | 0.945 | 0.671 | 0.979
19 | NCI-H1395 | – | – | – | – | – | 1.02 | 0.863 | 0.901 | 0.989 | 0.425 | 0.476 | 0.42 | 0.443 | 0.417 | 1.05 | 0.84 | 0.932 | 0.921
20 | A549 | – | – | – | – | – | – | – | – | – | – | – | – | – | – | 0.891 | 0.659 | 0.582 | 0.272
21 | NCI-H2170 | – | – | – | – | – | 0.951 | 0.966 | 0.894 | 0.992 | 0.533 | 0.507 | 0.463 | 0.511 | 0.57 | 0.932 | 1.02 | 0.973 | 1.08
22 | NCI-H1563 | 0.934 | 0.812 | 0.956 | 0.882 | 0.904 | – | – | – | – | 0.424 | 0.44 | 0.447 | 0.473 | 0.421 | 1 | 0.975 | 0.784 | 0.83
23 | ABC-1 | 0.282 | 0.341 | 0.221 | 0.284 | 0.292 | – | – | – | – | 0.518 | 0.544 | 0.605 | 0.65 | 0.619 | 0.773 | 0.782 | 0.744 | 0.38
